The target of assay [1] is T1, Cathepsin S (Homo sapiens, UniProt P25774). Nature of the assay: Inhibition of human recombinant cathepsin S expressed in baculovirus expression sytem after 15 mins by FRET assay.
For assay [2], the target named is T1, Cathepsin S. Nature of the assay: Inhibition of cathepsin S in human JY cells assessed as accumulation of invariant chain p10li after 24 hrs by Western blot analysis. Type of assay: cell-based. For orientation: In western blotting, separated proteins are transferred to a membrane and probed.

Our source for the IC50 values is ChEMBL document CHEMBL1156275, “Thioether acetamides as P3 binding elements for tetrahydropyrido-pyrazole cathepsin S inhibitors” (Bioorg Med Chem Lett, 2010).

T1 sequence (P25774 whole entry): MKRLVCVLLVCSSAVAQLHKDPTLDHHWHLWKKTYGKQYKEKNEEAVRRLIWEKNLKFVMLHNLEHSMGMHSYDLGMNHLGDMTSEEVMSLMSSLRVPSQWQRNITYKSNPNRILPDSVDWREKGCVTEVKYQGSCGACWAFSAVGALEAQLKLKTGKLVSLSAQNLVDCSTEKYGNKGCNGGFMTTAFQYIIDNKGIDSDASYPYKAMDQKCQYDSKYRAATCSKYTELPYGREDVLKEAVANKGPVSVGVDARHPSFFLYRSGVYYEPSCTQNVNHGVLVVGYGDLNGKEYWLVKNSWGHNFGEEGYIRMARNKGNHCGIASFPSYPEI

With `COc1ccccc1C1CCN(CC(O)Cn2nc(-c3ccc(C(F)(F)F)c(SCC(=O)N4CCOCC4)c3)c3c2CCNC3)CC1` (racemic), the IC50 in assay [1] amounted to 190 nM; in assay [2], 1850 nM.
With `CS(=O)(=O)N1CCc2c(c(-c3ccc(C(F)(F)F)c(SCC(=O)N4CCC(O)C4)c3)nn2CCCN2CCC(N3CCCC3=O)CC2)C1` (racemic), the concentration for half-maximal inhibition (IC50) in assay [2] was 520 nM.
`C[C@H]1CCCCN1CC(O)Cn1nc(-c2ccc(C(F)(F)F)c(SCC(=O)N3CCOCC3)c2)c2c1CCN(S(C)(=O)=O)C2` (mixture of isomers): the IC50 in assay [1] was 300 nM; in assay [2], 10000 nM.
For the compound `CC(=O)N1CCc2c(c(-c3ccc(C(F)(F)F)c(SCC(=O)N4CCCC4)c3)nn2CC(O)CN2CCC(C(C)(C)O)CC2)C1` (racemic), the IC50 in assay [2] turned out to be 110 nM.
`O=C(CSc1cc(-c2nn(CC(O)CN3CCC(c4ccccn4)CC3)c3c2CNCC3)ccc1C(F)(F)F)N1CCOCC1` (racemic): the IC50 in assay [2] was found to be 1680 nM.
In the case of `CS(=O)(=O)N1CCc2c(c(-c3ccc(C(F)(F)F)c(SCC(=O)N4CC[C@H](O)C4)c3)nn2CC(O)CN2CCC(c3ccccn3)CC2)C1` (stereo partly specified), the 50% inhibitory concentration (IC50) came out at 7 nM in assay [1] and 30 nM in assay [2].
Regarding `COc1ccccc1C1CCN(CC(O)Cn2nc(-c3ccc(C(F)(F)F)c(SCC(=O)N4CCOCC4)c3)c3c2CCN(C(=O)CO)C3)CC1` (racemic), the half-inhibitory concentration (IC50) in assay [2] is 480 nM.
Take `CCN1CCc2c(c(-c3ccc(C(F)(F)F)c(SCC(=O)N4CCCC4)c3)nn2CC(O)CN2CCC(c3ccccn3)CC2)C1` (racemic): in assay [1], the half-maximal inhibitory concentration (IC50) worked out at 250 nM.
For the compound `CS(=O)(=O)N1CCc2c(c(-c3ccc(C(F)(F)F)c(SCC(=O)N4CCOCC4)c3)nn2CCCN2CCC(N3CCCC3=O)CC2)C1`, the IC50 was found to be 20 nM in assay [1] and 450 nM in assay [2].
As to `CS(=O)(=O)N1CCc2c(c(-c3ccc(C(F)(F)F)c(SCC(=O)N4CCCC4)c3)nn2CCCN2CCC(N3CCCC3=O)CC2)C1`, in assay [2], the 50% inhibitory concentration (IC50) is 1970 nM.
Still for that read-out and setting: for `COc1ccccc1C1CCN(CC(O)Cn2nc(-c3ccc(C(F)(F)F)c(SCC(=O)N4CCOCC4)c3)c3c2CCN(S(C)(=O)=O)C3)CC1` (racemic) the value was 190 nM; for `CS(=O)(=O)N1CCc2c(c(-c3ccc(C(F)(F)F)c(SCC(=O)N4CCC(CO)CC4)c3)nn2CCCN2CCC(N3CCCC3=O)CC2)C1`, 340 nM.
Turning to `CC1CCN(C(=O)CSc2cc(-c3nn(CCCN4CCC(N5CCCC5=O)CC4)c4c3CN(S(C)(=O)=O)CC4)ccc2C(F)(F)F)CC1`, the IC50 in assay [1] was determined as 210 nM; in assay [2] it was 8000 nM.
`CC1CCCN1C(=O)CSc1cc(-c2nn(CCCN3CCC(N4CCCC4=O)CC3)c3c2CN(S(C)(=O)=O)CC3)ccc1C(F)(F)F` (stereo unspecified): in assay [2], the half-inhibitory concentration (IC50) came to 6000 nM.
As for `CC(=O)N1CCc2c(c(-c3ccc(C(F)(F)F)c(SCC(=O)N4CCCC4)c3)nn2CC(O)CN2CCC(C)CC2)C1` (racemic), the 50% inhibitory concentration (IC50) in assay [1] was 180 nM; in assay [2] it was 80 nM.
On the same counts, the results for `CS(=O)(=O)N1CCc2c(c(-c3ccc(C(F)(F)F)c(SCC(=O)N4CCOCC4)c3)nn2CC(O)CN2CCC(c3ccccc3F)CC2)C1` (racemic) are 10 nM and 3130 nM.
On the same counts, the results for `CS(=O)(=O)N1CCc2c(c(-c3ccc(C(F)(F)F)c(SCC(=O)N4CCCC4)c3)nn2CC(O)CN2CCC(c3ccccn3)CC2)C1` (racemic) are 1 nM and 470 nM.
Turning to `COc1ccccc1C1CCN(CC(O)Cn2nc(-c3ccc(C(F)(F)F)c(SCC(=O)N4CCCC4)c3)c3c2CCNC3)CC1` (racemic), the 50% inhibitory concentration (IC50) in assay [2] came out at 120 nM.
The same measure, in the same setting: for `O=C(CSc1cc(-c2nn(CC(O)CN3CCC(c4ccccn4)CC3)c3c2CN(C(=O)CO)CC3)ccc1C(F)(F)F)N1CCOCC1` (racemic) the value was 160 nM.
As for `CS(=O)(=O)N1CCc2c(c(-c3ccc(C(F)(F)F)c(SCC(=O)N4CCCC4)c3)nn2CCCN2CCC(C(=O)N3CCCC3)CC2)C1`, the IC50 in assay [1] stood at 40 nM; in assay [2] it was 280 nM.
On to `CS(=O)(=O)N1CCc2c(c(-c3ccc(C(F)(F)F)c(SCC(=O)N4CCOCC4)c3)nn2CC(O)CN2CCC(c3ccccn3)CC2)C1` (racemic), for which the 50% inhibitory concentration (IC50) in assay [2] came out at 380 nM.
Consider `CS(=O)(=O)N1CCc2c(c(-c3ccc(C(F)(F)F)c(SCCN4CCCCC4)c3)nn2CCCN2CCC(N3CCCC3=O)CC2)C1`, for which the IC50 in assay [2] came out at 40 nM.
Turning to `CS(=O)(=O)N1CCc2c(c(-c3ccc(C(F)(F)F)c(SCC(=O)NCc4ccccc4)c3)nn2CCCN2CCC(N3CCCC3=O)CC2)C1`, the IC50 in assay [2] amounted to 10000 nM.
The same measure, in the same setting: the result for `COc1ccccc1C1CCN(CC(O)Cn2nc(-c3ccc(C(F)(F)F)c(SCC(=O)N4CCOCC4)c3)c3c2CCN(C(C)=O)C3)CC1` (racemic) reads 900 nM.
As to `CN1CCN(C(=O)CSc2cc(-c3nn(CCCN4CCC(N5CCCC5=O)CC4)c4c3CN(S(C)(=O)=O)CC4)ccc2C(F)(F)F)CC1`, the half-inhibitory concentration (IC50) was found to be 740 nM in assay [1] and 110 nM in assay [2].
With `CS(=O)(=O)N1CCc2c(c(-c3ccc(C(F)(F)F)c(SCC(=O)N4CCCCC4)c3)nn2CCCN2CCC(N3CCCC3=O)CC2)C1`, the results for the concentration for half-maximal inhibition (IC50) in assay [1] and in assay [2] were 70 nM and 3920 nM, respectively.
On the same counts, the results for `CS(=O)(=O)N1CCc2c(c(-c3ccc(C(F)(F)F)c(SCC(=O)N4CC[C@@H](O)C4)c3)nn2CC(O)CN2CCC(c3ccccn3)CC2)C1` (mixture of isomers) are 7 nM and 30 nM.
Regarding `CS(=O)(=O)N1CCc2c(c(-c3ccc(C(F)(F)F)c(SCCNC(=O)Cc4ccccc4)c3)nn2CC(O)CN2CCC(N3CCCC3=O)CC2)C1` (stereo unspecified), the half-inhibitory concentration (IC50) in assay [2] was more than 10000 nM.
Still for that read-out and setting: the result for `CS(=O)(=O)N1CCc2c(c(-c3ccc(C(F)(F)F)c(SCC(=O)N4CCCCC4)c3)nn2CC(O)CN2CCC(c3ccccn3)CC2)C1` (stereo unspecified) reads 1540 nM.

As a reminder, the IC50 is the midpoint of a concentration-inhibition curve.
